Tests used:
CDK2/Cyclin E1 = biological target: T1, CDK2/Cyclin E1 (Homo sapiens, UniProt P24941); test: NanoBRET; assay type: cell-based; settings: read-out: NanoBRET EC50 ± SEM CDK2/Cyclin E1
T1 construct: Full-length kinases were obtained as plasmids cloned in frame with a terminal NanoLuc-fusion; CS1810C171 (CCNE1); host or cells: HEK293T
Procedure: (§1) The assay was performed as described previously. In brief: Full-length kinases were obtained as plasmids cloned in frame with a terminal NanoLuc-fusion (Promega, Madison, WI, USA), as specified in table (Table S6). Plasmids were transfected into HEK293T cells using FuGENE HD (Promega, E2312) and proteins were allowed to express for 20h. Serially diluted inhibitor and NanoBRET Kinase Tracer (Promega) at a concentration determined previously as the KD,app (Table S5) were pipetted into white 384-well plates (Greiner 781207) using an Echo acoustic dispenser (Labcyte, San Jose, CA, USA). The corresponding protein-transfected cells were added and reseeded at a density of 2.5 × 10^5 cells/mL after trypsinization and resuspending in Opti-MEM without phenol red (Life Technologies, Carlsbad, CA, USA). The system was allowed to equilibrate for 2 h at 37 °C/5% CO2 prior to BRET measurements. To measure BRET, NanoBRET NanoGlo Substrate + Extracellular NanoLuc Inhibitor (Promega, N2540) was added as per the manufacturer’s protocol, and filtered luminescence was measured on a PHERAstar plate reader (BMG Labtech, Ortenberg, Germany) equipped with a luminescence filter pair (450 nm BP filter (donor) and 610 nm LP filter (acceptor)). Competitive displacement data were then graphed using GraphPad Prism 9 software using a normalized 3-parameter curve fit with the following equation: Y = 100/(1 + 10^(X–LogEC50)).

CDK2/Cyclin A2 = biological target: T2, CDK2/Cyclin A2 (Homo sapiens, UniProt P24941); test: NanoBRET; assay type: cell-based; settings: read-out: NanoBRET EC50 ± SEM CDK2/Cyclin A2
T2 construct: Full-length kinases were obtained as plasmids cloned in frame with a terminal NanoLuc-fusion; CCNA2: 'Promega', no number; host or cells: HEK293T
Procedure: as §1

CDK4/Cyclin D1 = biological target: T3, CDK4/Cyclin D1 (Homo sapiens, UniProt P11802); test: NanoBRET; assay type: cell-based; settings: read-out: NanoBRET EC50 ± SEM CDK4/Cyclin D1
T3 construct: Full-length kinases were obtained as plasmids cloned in frame with a terminal NanoLuc-fusion; CS1810C118 (CCND1); host or cells: HEK293T
Procedure: as §1

CDK18/Cyclin Y = CDK18/Cyclin Y (Homo sapiens, UniProt Q07002); test: NanoBRET; assay type: cell-based; settings: read-out: NanoBRET EC50 ± SEM CDK18/Cyclin Y
Procedure: as §1

CDK2/Cyclin D1 = biological target: T4, CDK2/Cyclin D1 (Homo sapiens, UniProt P24941); test: NanoBRET; assay type: cell-based; settings: read-out: NanoBRET EC50 ± SEM CDK2/Cyclin D1
T4 construct: Full-length kinases were obtained as plasmids cloned in frame with a terminal NanoLuc-fusion; CS1810C118 (CCND1); host or cells: HEK293T
Procedure: as §1

CDK6/Cyclin D3 = biological target: T5, CDK6/Cyclin D3 (Homo sapiens, UniProt Q00534); test: NanoBRET; assay type: cell-based; settings: read-out: NanoBRET EC50 ± SEM CDK6/Cyclin D3
T5 construct: Full-length kinases were obtained as plasmids cloned in frame with a terminal NanoLuc-fusion; CS1810C87 (CCND3); host or cells: HEK293T
Procedure: as §1

STK38L = biological target: T6, STK38L (Homo sapiens, UniProt Q9Y2H1); test: DSF; assay type: binding
T6 construct: purchased in-house DSF panel (SGC Frankfurt)
Procedure: (§2) Recombinant protein kinase domains with a concentration of 2 μM were mixed with a 10 μM compound solution in DMSO, 20 mM HEPES, pH 7.5, and 500 mM NaCl. SYPRO Orange (5000×, Invitrogen) was added as a fluorescence probe (1 µl per mL). Subsequently, temperature-dependent protein unfolding profiles were measured, using the QuantStudio™ 5 realtime PCR machine (Thermo Fisher, Waltham, MA, USA). […] The temperature was raised with a step rate of 3 °C per minute. Data points were analyzed with the internal software (Thermal Shift SoftwareTM Version 1.4, Thermo Fisher) using the Boltzmann equation to determine the inflection point of the transition curve [56]. Differences in melting temperature are given as ΔTm values in °C. Measurements were performed in duplicates.

STK17A = biological target: T7, STK17A (Homo sapiens, UniProt Q9UEE5); test: DSF; assay type: binding
T7 construct: purchased in-house DSF panel (SGC Frankfurt)
T7 sequence (Q9UEE5 61-321): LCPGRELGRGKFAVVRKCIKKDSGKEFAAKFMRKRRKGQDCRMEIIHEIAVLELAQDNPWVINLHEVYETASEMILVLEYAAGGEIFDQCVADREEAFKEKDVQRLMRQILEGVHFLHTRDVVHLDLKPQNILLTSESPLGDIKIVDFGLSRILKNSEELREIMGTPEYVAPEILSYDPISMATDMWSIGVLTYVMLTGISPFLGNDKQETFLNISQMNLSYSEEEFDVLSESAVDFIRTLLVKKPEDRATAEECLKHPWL
Procedure: as §2

DAPK3 = biological target: T8, DAPK3 (Homo sapiens, UniProt O43293); test: DSF; assay type: binding
T8 construct: purchased in-house DSF panel (SGC Frankfurt)
Procedure: as §2

EPHA2 = biological target: T9, EPHA2 (Homo sapiens, UniProt P29317); test: DSF; assay type: binding
T9 construct: purchased in-house DSF panel (SGC Frankfurt)
T9 sequence (P29317 596-900): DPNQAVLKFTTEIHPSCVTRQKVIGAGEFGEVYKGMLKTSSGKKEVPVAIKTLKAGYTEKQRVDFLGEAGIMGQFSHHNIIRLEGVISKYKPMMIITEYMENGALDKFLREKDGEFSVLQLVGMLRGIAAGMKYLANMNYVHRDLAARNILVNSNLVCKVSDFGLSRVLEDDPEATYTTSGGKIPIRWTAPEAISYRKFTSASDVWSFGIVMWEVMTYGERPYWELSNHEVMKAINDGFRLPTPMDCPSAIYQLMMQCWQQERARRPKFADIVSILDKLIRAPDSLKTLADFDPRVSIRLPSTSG
Procedure: as §2

UKL3 = biological target: T10, UKL3 (Homo sapiens, UniProt Q6PHR2); test: DSF; assay type: binding;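 further: compound tested at 10 µM with 2 µM protein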
T10 construct: purchased in-house DSF panel (SGC Frankfurt)
T10 sequence (Q6PHR2 1-279): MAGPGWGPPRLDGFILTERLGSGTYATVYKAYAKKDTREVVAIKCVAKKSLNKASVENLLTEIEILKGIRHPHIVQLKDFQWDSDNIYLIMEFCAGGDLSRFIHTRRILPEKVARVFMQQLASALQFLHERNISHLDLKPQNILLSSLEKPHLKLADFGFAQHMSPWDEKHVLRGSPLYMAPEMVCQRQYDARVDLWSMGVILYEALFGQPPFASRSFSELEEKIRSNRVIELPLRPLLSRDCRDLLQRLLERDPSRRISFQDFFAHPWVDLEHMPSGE
Procedure: as §2

CLK3 = biological target: T11, CLK3 (Homo sapiens, UniProt P49761); test: DSF; assay type: binding
T11 construct: purchased in-house DSF panel (SGC Frankfurt)
T11 sequence (P49761 127-484): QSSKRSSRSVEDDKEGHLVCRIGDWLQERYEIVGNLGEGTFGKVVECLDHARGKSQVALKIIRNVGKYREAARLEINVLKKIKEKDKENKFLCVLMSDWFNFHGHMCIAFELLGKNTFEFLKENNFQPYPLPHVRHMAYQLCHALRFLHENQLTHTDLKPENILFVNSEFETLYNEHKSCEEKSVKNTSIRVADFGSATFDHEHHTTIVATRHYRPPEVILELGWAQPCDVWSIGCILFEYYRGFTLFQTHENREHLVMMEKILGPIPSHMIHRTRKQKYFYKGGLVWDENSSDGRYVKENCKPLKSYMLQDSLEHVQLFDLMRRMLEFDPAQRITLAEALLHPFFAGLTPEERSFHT
Procedure: as §2

T3 sequence (P11802 whole entry, the tested form may be a part): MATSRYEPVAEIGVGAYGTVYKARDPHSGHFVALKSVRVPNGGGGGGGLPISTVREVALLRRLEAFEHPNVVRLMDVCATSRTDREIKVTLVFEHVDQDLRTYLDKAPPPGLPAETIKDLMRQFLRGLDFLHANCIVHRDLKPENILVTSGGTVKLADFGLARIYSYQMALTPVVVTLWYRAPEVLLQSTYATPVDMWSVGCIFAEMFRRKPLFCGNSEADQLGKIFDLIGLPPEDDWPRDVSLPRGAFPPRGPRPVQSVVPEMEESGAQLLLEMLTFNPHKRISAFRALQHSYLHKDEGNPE
T3 sequence (P24385 whole entry partner, the tested form may be a part): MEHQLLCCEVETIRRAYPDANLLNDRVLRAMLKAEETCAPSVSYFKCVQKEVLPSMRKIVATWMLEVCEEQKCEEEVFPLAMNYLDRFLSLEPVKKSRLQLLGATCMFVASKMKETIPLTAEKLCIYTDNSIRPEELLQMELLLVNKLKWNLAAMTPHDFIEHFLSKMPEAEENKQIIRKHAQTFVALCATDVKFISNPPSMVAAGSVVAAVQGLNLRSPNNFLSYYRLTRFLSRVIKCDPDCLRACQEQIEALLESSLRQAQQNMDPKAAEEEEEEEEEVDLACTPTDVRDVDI
T5 sequence (Q00534 whole entry, the tested form may be a part): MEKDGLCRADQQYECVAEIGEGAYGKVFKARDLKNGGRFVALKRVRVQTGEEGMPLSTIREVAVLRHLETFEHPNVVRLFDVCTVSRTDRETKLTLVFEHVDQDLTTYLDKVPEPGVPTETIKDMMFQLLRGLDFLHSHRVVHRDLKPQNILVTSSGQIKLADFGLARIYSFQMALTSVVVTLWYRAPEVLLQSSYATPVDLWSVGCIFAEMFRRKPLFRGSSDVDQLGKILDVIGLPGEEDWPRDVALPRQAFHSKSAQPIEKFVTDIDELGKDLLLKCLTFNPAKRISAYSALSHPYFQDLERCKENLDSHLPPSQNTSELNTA
T5 sequence (P30281 whole entry partner, the tested form may be a part): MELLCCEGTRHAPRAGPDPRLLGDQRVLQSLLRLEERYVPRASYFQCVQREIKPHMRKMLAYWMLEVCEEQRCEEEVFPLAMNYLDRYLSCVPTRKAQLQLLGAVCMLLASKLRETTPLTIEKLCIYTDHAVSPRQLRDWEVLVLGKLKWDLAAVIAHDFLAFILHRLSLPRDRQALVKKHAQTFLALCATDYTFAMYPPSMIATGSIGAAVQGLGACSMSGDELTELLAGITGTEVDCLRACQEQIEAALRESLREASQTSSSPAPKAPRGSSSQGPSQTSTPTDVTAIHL
T8 sequence (O43293 9-289): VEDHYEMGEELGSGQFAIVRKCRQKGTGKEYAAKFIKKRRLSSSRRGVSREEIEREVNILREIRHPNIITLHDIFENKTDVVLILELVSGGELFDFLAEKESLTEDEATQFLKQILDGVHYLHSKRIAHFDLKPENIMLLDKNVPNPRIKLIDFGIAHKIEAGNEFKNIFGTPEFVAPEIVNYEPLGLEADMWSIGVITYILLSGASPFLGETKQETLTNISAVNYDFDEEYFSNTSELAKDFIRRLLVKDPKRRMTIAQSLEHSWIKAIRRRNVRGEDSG
Chain of CDK18/Cyclin Y (Q07002 whole entry): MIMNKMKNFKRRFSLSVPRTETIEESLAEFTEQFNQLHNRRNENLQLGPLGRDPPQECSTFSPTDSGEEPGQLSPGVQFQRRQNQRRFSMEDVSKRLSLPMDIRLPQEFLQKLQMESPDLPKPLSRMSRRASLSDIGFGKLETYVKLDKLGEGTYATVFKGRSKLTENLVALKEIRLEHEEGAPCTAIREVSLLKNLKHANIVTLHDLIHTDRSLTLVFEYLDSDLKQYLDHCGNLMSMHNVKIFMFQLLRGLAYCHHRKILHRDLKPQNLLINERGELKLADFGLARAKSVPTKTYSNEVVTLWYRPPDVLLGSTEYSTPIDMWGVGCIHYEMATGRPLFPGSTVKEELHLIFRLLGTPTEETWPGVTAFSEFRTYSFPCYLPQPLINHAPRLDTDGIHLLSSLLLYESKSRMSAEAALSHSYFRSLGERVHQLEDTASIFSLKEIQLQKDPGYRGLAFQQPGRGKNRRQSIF
Chain of CDK18/Cyclin Y (Q8ND76 2-341 partner limits assumed): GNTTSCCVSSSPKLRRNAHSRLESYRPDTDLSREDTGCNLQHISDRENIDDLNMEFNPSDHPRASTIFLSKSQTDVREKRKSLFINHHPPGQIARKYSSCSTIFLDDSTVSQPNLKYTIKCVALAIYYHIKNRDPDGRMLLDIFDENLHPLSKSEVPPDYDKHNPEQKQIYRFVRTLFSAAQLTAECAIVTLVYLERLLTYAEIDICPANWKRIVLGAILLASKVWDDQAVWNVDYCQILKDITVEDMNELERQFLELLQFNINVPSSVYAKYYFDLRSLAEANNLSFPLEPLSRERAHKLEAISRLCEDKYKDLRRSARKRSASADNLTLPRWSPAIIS
T6 sequence (Q9Y2H1 90-453): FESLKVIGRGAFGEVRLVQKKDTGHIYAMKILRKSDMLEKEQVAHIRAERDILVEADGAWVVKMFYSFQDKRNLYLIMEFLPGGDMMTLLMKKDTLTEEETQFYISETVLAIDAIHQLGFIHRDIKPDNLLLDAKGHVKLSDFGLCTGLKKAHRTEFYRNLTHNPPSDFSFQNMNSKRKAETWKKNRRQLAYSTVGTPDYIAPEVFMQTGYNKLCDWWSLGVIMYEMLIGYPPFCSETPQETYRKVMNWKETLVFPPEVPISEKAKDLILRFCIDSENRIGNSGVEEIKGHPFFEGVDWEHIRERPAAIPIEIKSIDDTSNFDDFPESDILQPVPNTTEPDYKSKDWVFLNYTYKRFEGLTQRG

SMILES | EC50 (CDK2/Cyclin E1) | EC50 (CDK2/Cyclin A2) | EC50 (CDK4/Cyclin D1) | EC50 (CDK18/Cyclin Y) | EC50 (CDK2/Cyclin D1) | EC50 (CDK6/Cyclin D3) | ΔTm STK38L (STK38L) | ΔTm STK17A (STK17A) | ΔTm DAPK3 (DAPK3) | ΔTm EPHA2 (EPHA2) | ΔTm UKL3 (UKL3) | ΔTm CLK3 (CLK3)
N#CCc1ccc(Nc2nccc(Nc3cc(C4CC4)[nH]n3)n2)cc1 [compound 1, reference compound] | 26.7 ± 6.3 nM | 28.1 ± 7.5 nM | 93.6 ± 23.6 nM | 25 ± 8.9 nM | 38.6 ± 17.3 nM | 45.3 ± 35.6 nM | 8.7 °C | 9.6 °C | 9.7 °C | 8.4 °C | 8.3 °C | 11.3 °C
CC(C)(C)OC(=O)Nc1ccc(CNc2nccc(Nc3cc(C(=O)OC(C)(C)C)[nH]n3)n2)cc1 [43d, tert-butyl 3-((2-((4-((tert-butoxycarbonyl)amino)benzyl)amino)pyrimidin-4-yl)amino)-1H-pyrazole-5-carboxylate] | 1860 ± 582 nM | 1520 ± 449 nM | 2140 ± 750 nM | 121 nM | 3070 ± 1860 nM | 2910 ± 1570 nM | 0.0 °C | -0.6 °C | 0.3 °C | 1.3 °C | 3.3 °C | 0.0 °C
CC(C)OC(=O)c1cc(Nc2ccnc(NCc3ccc(NC(=O)OC(C)(C)C)cc3)n2)n[nH]1 [42d, isopropyl 3-((2-((4-((tert-butoxycarbonyl)amino)benzyl)amino)pyrimidin-4-yl)amino)-1H-pyrazole-5-carboxylate] | 2600 ± 914 nM | 2840 ± 1350 nM | 1600 ± 409 nM | 128 ± 10.4 nM | 4860 ± 2390 nM | 2080 ± 935 nM | 0.0 °C | -0.4 °C | 0.1 °C | 0.6 °C | 2.3 °C | -0.4 °C
COC(=O)c1cc(Nc2ccnc(NCCOCCNC(=O)OC(C)(C)C)n2)[nH]n1 [21d, methyl 5-((2-((2-(2-((tert-butoxycarbonyl)amino)ethoxy)ethyl)amino)pyrimidin-4-yl)amino)-1H-pyrazole-3-carboxylate] | – | – | – | – | – | – | 1.2 °C | 2.2 °C | 3.3 °C | 0.2 °C | 0.9 °C | 1.1 °C
COC(=O)c1cc(Nc2ccnc(NCc3ccc(NC(=O)OC(C)(C)C)cc3)n2)[nH]n1 [21i, methyl 5-((2-((4-((tert-butoxycarbonyl)amino)benzyl)amino)pyrimidin-4-yl)amino)-1H-pyrazole-3-carboxylate] | 20900 ± 5690 nM | 11700 ± 2330 nM | 10900 ± 3920 nM | 1620 ± 287 nM | 33500 ± 1520 nM | 6550 ± 3480 nM | 0.9 °C | -0.1 °C | -0.6 °C | 0.4 °C | 0.3 °C | 0.4 °C

Reference: article PMC9736855, “Discovery of 3-Amino-1H-pyrazole-Based Kinase Inhibitors to Illuminate the Understudied PCTAIRE Family” (International Journal of Molecular Sciences, 2022)
